Assay results reported in patent US9127079B2, “Inhibitors of phosphatase and tensin homolog (PTEN) conjugates” (THE UNIVERSITY OF BRITISH COLUMBIA, priority 2009, dated 2015).

What was measured:
Type in all cases: cell-based, rat
PTEN [1] = test: Immunostaining of endogenous PTEN: nuclear translocation in cultured neurons with NMDA; details: peptide 10 uM, NMDA stimulation
Procedure: (§1) Dissociated cultures of rat cortical or hippocampal neurons were prepared from 18-d-old Sprague Dawley rat embryos as described previously (Mielke and Wang 2005). To obtain mixed cultures enriched with neurons, uridine (10 μM) and 5-Fluor-T-deoxyuridine (10 μM) were added to the culture medium at 3 d in vitro (DIV) and maintained for 48 h to inhibit non-neuronal cell proliferation before the cultures were returned to the normal culture medium. Mature neurons (12-14 DIV) were used for experiments.
(§2) In order to induce excitotoxicity, 12-14 DIV cultured neurons were washed and transferred to Mg2+-free extracellular solution (ECS) containing the following (in mM): 25 HEPES acid, 140 NaCl, 33 glucose, 5.4 KCl, and 1.3 CaCl2, with pH 7.35 and osmolarity 320-330 mOsm. ECS and subjected to NMDA-induced excitotoxicity (20 μM NMDA, 10 μM glycine, 60 min at room temperature) or any other experimental conditions as indicated in the texts. Cells were then washed twice with normal ECS, and returned to the original growth conditions until additional assay.

PTEN [2] = test: Western blotting of nuclear fractions from cultured neurons: PTEN nuclear translocation; details: NMDA stimulation
Procedure: as §1
In order to induce excitotoxicity, 12-14 DIV cultured neurons were washed and transferred to Mg2+-free extracellular solution (ECS) containing the following (in mM): 25 HEPES acid, 140 NaCl, 33 glucose, 5.4 KCl, and 1.3 CaCl2, with pH 7.35 and osmolarity 320-330 mOsm. […]
For western blotting, 10 μg of the nuclear extract or 40 μg of total cell lysate (solubilized by 1% SDS, 1 mM EGTA, 1 mM EDTA, 1 mM DTT, 2 mM sodium orthovanadate, and protease inhibitors cocktail in PBS) from each treatment condition was separated with SDS-PAGE, transferred onto a polyvinylidene difluoride (PVDF) membrane, and probed with the relevant antibodies. […] Band intensities were quantified using NIH ImageJ™ software and normalized to the quantity of a nuclear marker or β-tubulin in each sample lane.

[3] = tested on: cultured hippocampal neurons; test: Neuronal death by nuclei staining (Hoechst 33342), NMDA excitotoxicity; details: NMDA 20 uM, 1 hour
Procedure: (§3) Dissociated cultures of rat cortical or hippocampal neurons were prepared from 18-d-old Sprague Dawley rat embryos as described previously (Mielke and Wang 2005). To obtain mixed cultures enriched with neurons, uridine (10 μM) and 5-Fluor-T-deoxyuridine (10 μM) were added to the culture medium at 3 d in vitro (DIV) and maintained for 48 h to inhibit non-neuronal cell proliferation before the cultures were returned to the normal culture medium. Mature neurons (12-14 DIV) were used for experiments. […]
(§4) Necrotic neuronal death was quantified by measuring lactate dehydrogenase (LDH) release 20 h after treatments using a Cyto Tox™ 96 assay kit (Promega™, Madison, Wis.). Absorbance readings were measured using a spectrophotometric microplate reader. Apoptotic neuronal death was determined by visualizing the nucleus condensation and fragmentation of neurons stained with Hoechst-33342™. Images were taken with a Leica DMIRE2™ fluorescence microscope. […] These observations were quantified by double-blind counting of apoptotic and total neurons in each visual field and expressed as percentage apoptosis. […] Data are expressed as the difference in apoptosis relative to control and are expressed as a percentage.

[4] = tested on: cultured hippocampal neurons; test: Neuronal death by LDH assay, NMDA excitotoxicity; details: NMDA 20 uM, 1 hour
Procedure: as §3, §4

nuclear PIP3 = test: Level of nuclear PIP3 after NMDA treatment
Procedure: as §1, §2
Nuclear extracts were isolated from control and NMDA-treated cell cultures (10^8 cells) using the Panomics™ nuclear extraction kit (Panomics™; catalog number AY2002) as recommended by the manufacturer.

Compound | PTEN nuclear translocation (endogenous PTEN immunostaining) (PTEN [1]) | PTEN nuclear translocation (western blotting of nuclear fractions) (PTEN [2]) | cell death, nuclei staining [3] | cell death, LDH assay [4] | level of nuclear PIP3 (nuclear PIP3)
YGRKKRRQRRR-PEETSEKVENGS (YGRKKRRQRRRPEETSEKVENGS; PTEN K289 interference peptide conjugated to TAT protein transduction domain) [Peptide-K289, TAT protein transduction domain fused to PTEN K289 interference peptide; control for Peptide-K13] | failed to do so | failed to do so | – | – | –
CN[C@H](CC(=O)O)C(=O)O [NMDA, N-methyl-D-asparate] | – | – | significant cell death | significant cell death | reduced the level of nuclear PIP3
